From patent US20130245110A1, “USE FOR CANNABINOIDS” (priority 2008, published 2013)
“And” between values parts separate entries of the source, which are not always exact repeats. Equal entries are not always repeated.

Tests used:
[1] = tested on: C57B1/6 ob/ob mouse; assay: Plasma triglycerides; format: in vivo; conditions: ob/ob mice; CBD given on its own (3.0 mg/kg)
Experimental: The following are a battery of tests used to elicit the effects of drugs on diseases including type I or II diabetes, obesity, dyslipidaemia, related metabolic disorders and cardiovascular disease. • a) Body weight: Bodyweights of all mice were measured twice weekly during the study. • b) Food intake: Food intake was measured by weight difference taking account of food wastage in the bottom of the cage. • c) Measurement of water consumption: Water intake was calculated daily for each animal, during the treatment period, by weight difference of the water bottle. • d) Oral Glucose Tolerance Test (OGTT): Glucose was dissolved in water (3 g/10 ml) and given to the mice orally at a rate of 3 g/kg. […] Samples were then analysed automatically using a SpectraMax-250 and SoftMax Pro software. • f) Plasma preparation: Blood was collected for the measurement of i) plasma insulin, ii) cholesterol, iii) free fatty acids or iv) triglyceride concentration. • i. Plasma insulin analysis: Plasma insulin was measured using 5 μl of plasma, compared with a mouse insulin standard using a 96-well micro-assay plate • ii. […] The samples were mixed and incubated for 5 minutes before reading at dual wavelengths of 500 and 660 nm. • iii. Plasma free fatty acids: 5 μl samples of plasma were measured into a 96-well assay plate, to which was added 0.2 ml of reagents NEFA C • iv. […]

[2] = tested on: NOD mice; conditions: 86% in non-treated controls; cited from earlier work
[3] = tested on: dietary induced obese (DIO) mouse model; assay: 24 h energy expenditure by indirect calorimetry, chronic dosing study; format: in vivo; conditions: DIO mice
Source text: The C57B1/6 mouse fed on a high fat diet for around 12 weeks is a standard model used to evaluate agents likely to affect metabolic disease including obesity, type II diabetes and dyslipidaemia. Thus both potential anti-obesity effects and effects on diabetic and dyslipidaemia parameters will be measured.
(§1) Once the acute studies were complete the mice were grouped in two groups of five mice for the chronic dosing study. Dosing was daily by oral gavage at 09:00-10:00.

[4] = tested on: dietary induced obese (DIO) mouse model; assay: Thermic response to food (energy expenditure after Complan meal), chronic dosing study; format: in vivo; design: Thermic response to food: unit not given here; conditions: for Thermic response to food: listed as pure THCV
Source text: as §1
Energy expenditure consists of basal metabolic rate, exercise-induced energy expenditure, and non-exercise thermogenesis. The latter is the most likely area to be affected by anti-obesity agents. Non-exercise thermogenesis includes the thermic response to food, which in rodents can be measured by examining energy expenditure in response to a meal. This was measured after an oral dose of complan (see methods).

In the case of `C=C(C)[C@@H]1CCC(C)=C[C@H]1c1c(O)cc(CCCCC)cc1O` [CBD, cannabidiol], the Plasma triglycerides [1] is listed as “no effect on plasma triglycerides” and the Incidence of diabetes [2] is listed as 30%.

With `CCCc1cc(O)c2c(c1)OC(C)(C)[C@@H]1CCC(C)=C[C@@H]21` [THCV, tetrahydrocannabivarin] the “Potency on energy expenditure relative to rimonabant, on a dosage basis” value [3] was “at least 10 fold”, the “Effectiveness on energy expenditure compared with rimonabant” value ([3]; high dose THCV-BDS, pure THCV 0.3 mg kg−1) was “more effective than rimonabant” and the “Thermic response to food” value ([4]; DIO mice, days 15-17, 0.3 mg·kg−1 p.o., Hour 0.22) was 0.67 and 0.91 and 1.26. For the same compound, the “Thermic response to food” value ([4]; DIO mice, days 15-17, 0.3 mg·kg−1 p.o., Hour 0.44) was 1.78 and 1.70 and 1.98, the “Thermic response to food” value ([4]; DIO mice, days 15-17, 0.3 mg·kg−1 p.o., Hour 0.67) was 2.30 and 2.06 and 2.49 and the “Thermic response to food” value ([4]; DIO mice, days 15-17, 0.3 mg·kg−1 p.o., Hour 0.89) was 2.51 and 2.42. For the same compound, the “Thermic response to food” value ([4]; DIO mice, days 15-17, 0.3 mg·kg−1 p.o., Hour 1.11) was 2.51 and 2.74 and 2.64, the “Thermic response to food” value ([4]; DIO mice, days 15-17, 0.3 mg·kg−1 p.o., Hour 1.33) was 2.50 and 2.82 and 2.67 and the “Thermic response to food” value ([4]; DIO mice, days 15-17, 0.3 mg·kg−1 p.o., Hour 1.56) was 2.53 and 2.81 and 3.13. For the same compound, the “Thermic response to food” value ([4]; DIO mice, days 15-17, 0.3 mg·kg−1 p.o., Hour 1.78) was 2.54 and 2.76 and 3.31, the “Thermic response to food” value ([4]; DIO mice, days 15-17, 0.3 mg·kg−1 p.o., Hour 2.00) was 2.45 and 2.62 and 3.18 and the “Thermic response to food” value ([4]; DIO mice, days 15-17, 0.3 mg·kg−1 p.o., Hour 2.22) was 2.61 and 2.74 and 3.44. For the same compound, the “Thermic response to food” value ([4]; DIO mice, days 15-17, 0.3 mg·kg−1 p.o., Hour 2.44) was 2.71 and 2.74 and 3.18, the “Thermic response to food” value ([4]; DIO mice, days 15-17, 0.3 mg·kg−1 p.o., Hour 2.67) was 2.66 and 2.83 and 3.10 and the “Thermic response to food” value ([4]; DIO mice, days 15-17, 0.3 mg·kg−1 p.o., Hour 2.89) was 2.71 and 3.01 and 3.09. The “Thermic response to food” value ([4]; DIO mice, days 15-17, 0.3 mg·kg−1 p.o., Hour 3.11) was 2.68 and 3.16 and 3.02, the “Thermic response to food” value ([4]; DIO mice, days 15-17, 0.3 mg·kg−1 p.o., Hour 3.33) was 2.68 and 3.34 and 3.04 and the “Thermic response to food” value ([4]; DIO mice, days 15-17, 0.3 mg·kg−1 p.o., Hour 4.00) was 2.70 and 3.49 and 3.13. For the same compound, the “Thermic response to food, effect in words” value ([4]; DIO mice, days 15-17, chronic-study doses (rimonabant 10, pure THCV 0.3 mg·kg−1 p.o.)) was “have an affect over 2 h” and the “Thermic response to food” value ([4]; mouse, in vivo, po) was 2.61 and 3.49 and 3.02 and 2.43 and 3.48 and 3.03.
